Measured values from patent publication US20050182073A1, “5-Phenylpyrimidines” (priority 2004, published 2005).

Experiment: logP determination by HPLC (EEC Directive 79/831 Annex V. A8)
Assay type: physicochemical
Settings: gradient method, acetonitrile/0.1% aqueous phosphoric acid
Method: The logP values were determined in accordance with EEC Directive 79/831 Annex V. A8 by HPLC (gradient method, acetonitrile/0.1% aqueous phosphoric acid).

| Structure (SMILES) | chromatographic logP |
| --- | --- |
| CC(C)Cc1nc([S+](C)[O-])nc(Cl)c1-c1ccc(F)cc1Cl (stereo not shown) [4-chloro-5-(2-chloro-4-fluorophenyl)-6-isobutyl-2-(methylsulphinyl)pyrimidine] | 3.27 |
| CC(C)Cc1nc(-n2cncn2)nc(Cl)c1-c1ccc(F)cc1Cl [Example 1, 4-chloro-5-(2-chloro-4-fluorophenyl)-6-isobutyl-2-(1H-1,2,4-triazol-1-yl)pyrimidine] | 3.79 |
| CSc1nc(Cl)c(-c2ccc(F)cc2Cl)c(CC(C)C)n1 [II-2, 4-chloro-5-(2-chloro-4-fluorophenyl)-6-isobutyl-2-(methylthio)pyrimidine] | 5.67 |
| CC(C)Cc1nc(S(C)(=O)=O)nc(Cl)c1-c1ccc(F)cc1Cl [III-2a, 4-chloro-5-(2-chloro-4-fluorophenyl)-6-isobutyl-2-(methylsulphonyl)pyrimidine] | 3.82 |
